The values that follow come from ChEMBL document CHEMBL1828590 (J Med Chem, 2011).

The subject of series [1] is HCT-116. Briefly: Antitumor activity against human HCT116 cells xenografted in nude BALB/c mouse assessed as tumor growth inhibition at 50 mg/kg, po qd for 21 days measured on day 18. It counts as functional. As to conditions: read-out: TGI. On the technique in general: Xenograft models place foreign cells or tissue in a host animal.
In series [2] the test system is HCT-116. Briefly: Antitumor activity against human HCT116 cells xenografted in nude BALB/c mouse assessed as tumor growth inhibition at 50 mg/kg, po qd for 21 days measured on day 15. As to conditions: read-out: TGI. The class given is functional.
The test system of another series is COLO 205. The series can be described thus: Antiproliferative activity against human COLO205 cells after 96 hrs by celltiter 96 assay. As to conditions: COLO 205, 96 h. The class given is functional, cell-based.
A further series deals with A2780. The series can be described thus: Antiproliferative activity against human A2780 cells after 96 hrs by celltiter 96 assay. As to conditions: A2780, 96 h. It counts as functional, cell-based.
Series [3] has as its system HCT-116. The series can be described thus: Antiproliferative activity against human HCT116 cells after 96 hrs by celltiter 96 assay. It counts as functional, cell-based. As to conditions: HCT-116, 96 h.
The test system of the next series is PC-3. Briefly: Antiproliferative activity against human PC3 cells after 96 hrs by celltiter 96 assay. The class given is functional, cell-based. To be noted: PC-3, 96 h.
Series [4] can be described thus: Oral bioavailability in nude BALB/c mouse at 50 mg/kg. It counts as ADME, organism-based. As to conditions: in vivo.
Series [5] relates to Mus musculus. Briefly: Toxicity in nude BALB/c mouse xenografted with human HCT116 cells assessed as body weight loss at 50 mg/kg, po QD for 21 days measured on day 12. The class given is organism-based, HCT-116. To be noted: in vivo, 504 h. On the set-up: dose 50 mg/kg, route oral.
For series [6], the system named is Mus musculus. Briefly: Toxicity in nude BALB/c mouse xenografted with human HCT116 cells assessed as mouse survival at 50 mg/kg, po QD for 21 days measured on day 22. On the set-up: dose 50 mg/kg, route oral. To be noted: in vivo, 504 h. It counts as organism-based, HCT-116.

Structures are written as SMILES.

For the molecule `Cc1[nH]c2ccccc2c1CCNCc1ccc(/C=C/C(=O)NO)cc1` [PANOBINOSTAT], the inhibition in vivo at 50 mg/kg in the series with HCT-116 [1] is 61%; with HCT-116 [2], 41%. Moreover, the IC50 in the series on COLO 205 was 18 nM; in the series on A2780 it was 35 nM; with HCT-116 [3], 48 nM; in the series on PC-3, 24 nM. The bioavailability in series [4] is 4.6%. The Activity in the series with Mus musculus [5] was 17.3%; in the series with Mus musculus [6] it was “Non-toxic”.

A word on the IC50: it is the concentration at which inhibition is half-maximal. In general, bioavailability refers to the share of a dose that reaches the circulation, judged against a reference dose that is usually intravenous.
